Reference: ChEMBL document CHEMBL4004788, “Cyclin-Dependent Kinase (CDK) Inhibitors: Structure-Activity Relationships and Insights into the CDK-2 Selectivity of 6-Substituted 2-Arylaminopurines” (J Med Chem, 2017)
The source made the active and inactive calls. No cut-off for these calls is given here.

How the values were obtained:
[1] = test system: A-375; assay: Growth inhibition of Rb-proficient human A375 cells after 120 hrs by SRB assay; assay type: functional
[2] = test system: Calu-6; assay: Growth inhibition of Rb-proficient human Calu6 cells after 120 hrs by SRB assay; assay type: functional
[3] = test system: MDA-MB-231; assay: Growth inhibition of Rb-proficient human MDA-MB-231 cells after 120 hrs by SRB assay; assay type: functional
[4] = test system: SJSA-1; assay: Growth inhibition of Rb-proficient human SJSA1 cells after 120 hrs by SRB assay; assay type: functional
[5] = test system: Skut1B; assay: Growth inhibition of Rb-proficient human SK-UT-1B cells after 120 hrs by SRB assay; assay type: functional
[6] = Chemical stability of the compound; assay type: physicochemical
[7] = test system: Calu-6; assay: Growth inhibition of Rb-proficient human Calu6 cells at 30 uM after 120 hrs by SRB assay; assay type: functional, cell-based
[8] = test system: A-375; assay: Growth inhibition of Rb-proficient human A375 cells at 30 uM after 120 hrs by SRB assay; assay type: functional, cell-based
[9] = test system: MDA-MB-231; assay: Growth inhibition of Rb-proficient human MDA-MB-231 cells at 30 uM after 120 hrs by SRB assay; assay type: functional, cell-based
[10] = test system: SJSA-1; assay: Growth inhibition of Rb-proficient human SJSA1 cells at 30 uM after 120 hrs by SRB assay; assay type: functional, cell-based
[11] = test system: Skut1B; assay: Growth inhibition of Rb-proficient human SK-UT-1B cells at 30 uM after 120 hrs by SRB assay; assay type: functional, cell-based
[12] = target: Cyclin-dependent kinase 2 (Homo sapiens, UniProt P24941)
Description: Inhibition of CDK2 (unknown origin)

[13] = organism: Homo sapiens; assay: Inhibition of Cdk4/Cyclin D (unknown origin) relative to untreated control; details: concentration not given here

SMILES | growth inhibition (GI) [1] | growth inhibition (GI) [2] | growth inhibition (GI) [3] | growth inhibition (GI) [4] | growth inhibition (GI) [5] | also measured
NS(=O)(=O)c1ccc(Nc2nc(OCC3CCCCC3)c3cc[nH]c3n2)cc1 | Dose-dependent effect | Dose-dependent effect | Dose-dependent effect | Dose-dependent effect | Dose-dependent effect | 
NS(=O)(=O)c1ccc(Nc2nc(OCC3CCCCC3)c3cn[nH]c3n2)cc1 | Dose-dependent effect | Dose-dependent effect | Dose-dependent effect | Dose-dependent effect | Dose-dependent effect | 
NS(=O)(=O)c1ccc(Nc2nc(OCC3CCCCC3)c3nc[nH]c3n2)cc1 | Active | Active | Active | Active | Active | 
COc1nc(N)nc2nc[nH]c12 [METHYLGUANINE] |  |  |  |  |  | Stability [6]: Unstable
NS(=O)(=O)c1ccc(Nc2nc(-c3cccc(-c4ccccc4)c3)c3nc[nH]c3n2)cc1 |  |  |  |  |  | growth inhibition (GI) [7]: inactive; growth inhibition (GI) [8]: inactive; growth inhibition (GI) [9]: inactive; growth inhibition (GI) [10]: inactive; growth inhibition (GI) [11]: inactive
CC[C@@H](C)Oc1nc(Nc2ccc(S(N)(=O)=O)cc2)nc(N)c1C=O |  |  |  |  |  | IC50 [12]: 0.0008 µM
Nc1nc(OCC2CCCCC2)c2cn[nH]c2n1 |  |  |  |  |  | inhibition [13]: 0%
CCC(C)Oc1nc(N)nc2[nH]cnc12 (centres undefined) |  |  |  |  |  | IC50 [12]: 49 µM
